Measurements from patent US12030880B2, “Iminosulfanone compound as bromodomain protein inhibitor and pharmaceutical composition and medical use thereof” (CHIA TAI TIANQING PHARMACEUTICAL GROUP CO., LTD., priority 2018, dated 2024).

Columns and labels:
MV4-11 cells = test: Cell proliferation activity assay in MV4-11; type: cell-based; settings: Homo sapiens, inhibiting cell proliferation, 72 hours, Cell-Titer Blue
Procedure: (§1) Human acute lymphoblastic leukemia cell line MV4-11 cells were cultured in PRIM1640 medium plus 10% fetal bovine serum (FBS, purchased from Biological Industries, BI) and 1% penicillin/streptomycin double antibody (P/S, purchased from Life Technology) at 37° C. with 5% CO2. On the day before the compound test, MV4-11 cells were spread in a 96-well plate (purchased from Corning) at a concentration of 8000 cells/195 μL/well. After 24 hours, the compound was serially diluted 4-fold with 100% DMSO starting from 10 mM (9 concentrations in total), and then 2 μL of the compound at each concentration was added to 48 μL of PRIM1640 medium for dilution. 5 μL of the diluted compound at each concentration was added to the wells spread with the cell suspension, and the compound and cells were co-incubated in a cell incubator for 72 hours (3 days). Then the mixture was added with 35 μL of Cell-Titer Blue reagent (purchased from Promega) and incubated for another 4 hours. The fluorescence values (excited at 560 nm, detected at 590 nm) were then read on Flexstation III, and the data were calculated using GraphPad Prism software to give IC50 value of the compound in inhibiting cell proliferation.

Kasumi-1 cells = test: Cell proliferation activity assay in Kasumi-1; type: cell-based; settings: Homo sapiens, inhibiting cell proliferation, 72 hours, Cell-Titer Blue
Procedure: as §1, with “myeloblastic” for “lymphoblastic”, “Kasumi-1” for “MV4-11”, “20%” for “10%”, “5000” for “8000”

BRD4 (BD2) = BRD4 (BD2) (Homo sapiens (Human), UniProt O60885); test: In vitro BRD4 (BD2) enzymatic activity assay (HTRF); type: binding; settings: GST-BRD4 (BD2, 349-460 aa)
Procedure: In the present application, IC50 values of the compounds in inhibiting BRD4 (BD2) enzyme binding reaction were determined by homogeneous time resolved fluorescence (HTRF). A compound was serially diluted 5-fold with 100% DMSO starting from 1 mM (7 concentrations in total), and then 2 μL of the compound at each concentration was added to 18 μL of a reaction buffer (20 mM HEPES pH 7.5, 150 mM NaCl, 5 mM DTT, 0.005% Tween 20, and 100 μg/mL BSA) for dilution. After being mixed well, 2 μL of the compound at each concentration was added to 48 μL of the above reaction buffer for dilution, and mixed well (final concentration of the compound in DMSO: 0.1%). 2.5 μL of the resulting mixture was added to a 384-well plate (OptiPlate-384, purchased from PerkinElmer), then 5 μL of GST-BRD4 (BD2, 349-460 aa) (final concentration: 2 nM) was added, and the resulting mixture was centrifuged, and fully mixed. 2.5 μL of a peptide Biotin-AHA-SGRGK(Ac)GGK(Ac)GLGK(Ac)GGAK(Ac) RHRKV (final concentration: 200 nM) was then added to initiate the reaction (total reaction volume: 10 μL). The 384-well plate was placed in an incubator at 23° C. to react for 1 hour, and then 5 μL of Eu3+ cryptate-labled anti-GST antibody (purchased from Cisbio) and 5 μL of Streptavidin-XL-665 (purchased from Cisbio) were added to terminate the reaction. After being incubated in the incubator for another 1 hour, the fluorescence values (excited at 320 nm, emitted light at 665 nm and 620 nm being detected, and the ratio of the two being the enzyme binding signal) were read on Envision (purchased from PerkinElmer). The binding strength of each compound to BRD4 (BD2) protein was determined respectively at 7 concentrations, and the data were calculated using GraphPad Prism software to obtain the IC50 value of the compound.

BRD4 (BD1) = BRD4 (BD1) (Homo sapiens (Human), UniProt O60885); test: In vitro BRD4 (BD1) enzymatic activity assay (HTRF); type: binding; settings: GST-BRD4 (BD1, 44-168 aa)
Procedure: In the present application, IC50 values of the compounds in inhibiting BRD4 (BD1) enzyme binding reaction were determined by homogeneous time resolved fluorescence (HTRF). A compounds was serially diluted 5-fold with 100% DMSO starting from 0.2 mM (7 concentrations in total), and then 2 μL of the compound at each concentration was added to 48 μL of a reaction buffer (20 mM HEPES pH 7.5, 150 mM NaCl, 5 mM DTT, 0.005% Tween 20, and 100 μg/mL BSA) for dilution, and mixed well. 2.5 μL of the resulting mixture was added to a 384-well plate (OptiPlate-384, purchased from PerkinElmer), then 5 μL of GST-BRD4 (BD1, 44-168 aa) (final concentration: 1 nM) was added, and the resulting mixture was centrifuged, and fully mixed. 2.5 μL of a short peptide Biotin-AHA-SGRGK(Ac)GGK(Ac)GLGK(Ac)GGAK(Ac) RHRKV (final concentration: 100 nM) was then added to initiate the reaction (total reaction volume: 10 μL). The 384-well plate was placed in an incubator at 23° C. to react for 1 hour, and then 5 μL of Eu3+ cryptate-labled anti-GST antibody (purchased from Cisbio) and 5 μL of Streptavidin-XL-665 (purchased from Cisbio) were added to terminate the reaction. After being incubated in the incubator for another 1 hour, the fluorescence values (excited at 320 nm, emitted light at 665 nm and 620 nm being detected, and the ratio of the two being the enzyme binding signal) were read on Envision (purchased from PerkinElmer). The binding strength of each compound to BRD4 (BD1) protein was determined respectively at 7 concentrations, and the data were calculated using GraphPad Prism software to obtain the IC50 value of the compound.

| SMILES | IC50 (MV4-11 cells) [nM] | IC50 (Kasumi-1 cells) [nM] | IC50 (BRD4 (BD2)) [nM] | IC50 (BRD4 (BD1)) [nM] |
| --- | --- | --- | --- | --- |
| CCNC(=O)c1cc2c(-c3cc(N=S(C)(C)=O)ccc3Oc3ccc(S(C)(=O)=O)cc3)cn(C)c(=O)c2[nH]1 [Example 1, 4-{5-{[dimethyl(oxo)-λ^6-sulfanylidene]amino}-2-[4-(methylsulfonyl)phenoxy]phenyl}-N-ethyl-6-methyl-7-oxo-6,7-dihydro-1H-pyrrolo[2,3-c]pyridine-2-carboxamide] | 124 | 322 |  |  |
| Cn1cc(-c2cc(N=S(C)(C)=O)ccc2Oc2ccc(C#N)cc2F)c2cc[nH]c2c1=O [Example 2, 4-{4-{[dimethyl(oxo)-λ^6-sulfanylidene]amino}-2-(6-methyl-7-oxo-6,7-dihydro-1H-pyrrolo[2,3-c]pyridin-4-yl)phenoxy}-3-fluorobenzonitrile] | 15.1 | 6.6 |  |  |
| Cn1cc(-c2cc(N=S(C)(C)=O)ccc2Oc2ccc(S(C)(=O)=O)cc2)c2cc[nH]c2c1=O [Example 3, 4-{5-{[dimethyl(oxo)-λ^6-sulfanylidene]amino}-2-[4-(methylsulfonyl)phenoxy]phenyl}-6-methyl-1,6-dihydro-7H-pyrrolo[2,3-c]pyridin-7-one] | 30.9 | 155 | 0.45 | 7.7 |
| Cc1cccc(Cl)c1Oc1ccc(N=S(C)(C)=O)cc1-c1cn(C)c(=O)c2[nH]ccc12 [Example 6, 4-{2-(2-chloro-6-methylphenoxy)-5-[dimethyl(oxo)-λ^6-sulfanylidene]aminophenyl}-6-methyl-1,6-dihydro-7H-pyrrolo[2,3-c]pyridin-7-one] | 90.4 | 13.6 | 0.93 | 26.4 |
| CCNC(=O)c1cc2c(-c3cc(N=S(C)(C)=O)ccc3Oc3c(C)cccc3Cl)cn(C)c(=O)c2[nH]1 [Example 7, 4-{2-(2-chloro-6-methylphenoxy)-5-{[dimethyl(oxo)-λ^6-sulfanylidene]amino}phenyl}-N-ethyl-6-methyl-7-oxo-6,7-dihydro-1H-pyrrolo[2,3-c]pyridine-2-carboxamide] | 152 | 2.3 | 0.34 | 24.3 |
| Cn1cc(-c2cc(N=S(C)(C)=O)ccc2Nc2ccc(F)cc2F)c2cc[nH]c2c1=O [Example 8, 4-{2-(2,4-difluorophenyl)amino-5-[dimethyl(oxo)-λ^6-sulfanylidene]aminophenyl}-6-methyl-1,6-dihydro-7H-pyrrolo[2,3-c]pyridin-7-one] | 16.1 | 9.3 | 1.3 | 2.4 |
| Cc1ncccc1Oc1ccc(N=S(C)(C)=O)cc1-c1cn(C)c(=O)c2[nH]ccc12 [Example 9, 4-{5-{[dimethyl(oxo)-λ^6-sulfanylidene]amino}-2-[(2-methyl-pyridin-3-yl)oxy]phenyl}-6-methyl-1,6-dihydro-7H-pyrrolo[2,3-c]pyridin-7-one] |  |  | 0.75 | 3 |
| CCNC(=O)c1cc2c(-c3cc(N=S(C)(C)=O)ccc3Oc3c(C)cc(F)cc3C)cn(C)c(=O)c2[nH]1 [Example 10, 4-{5-{[dimethyl(oxo)-λ^6-sulfanylidene]amino}-2-(4-fluoro-2,6-dimethylphenoxy)phenyl}-N-ethyl-6-methyl-7-oxo-6,7-dihydro-1H-pyrrolo[2,3-c]pyridine-2-carboxamide] | 240 | 66.3 | 0.53 | 96.3 |
| Cc1cc(F)cc(C)c1Oc1ccc(N=S(C)(C)=O)cc1-c1cn(C)c(=O)c2[nH]ccc12 [Example 11, 4-{5-{[dimethyl(oxo)-λ^6-sulfanylidene]amino}-2-(4-fluoro-2,6-dimethylphenoxy)phenyl}-6-methyl-1,6-dihydro-7H-pyrrolo[2,3-c]pyridin-7-one] | 124 | 53.2 | 1.3 | 29.4 |
| Cn1cc(-c2cc(N=S(C)(C)=O)ccc2OCC2CCOC2)c2cc[nH]c2c1=O (stereo not shown) [Example 12, 4-{5-{[dimethyl(oxo)-λ^6-sulfanylidene]amino}-2-[(tetrahydrofuran-3-yl)methoxy]phenyl}-6-methyl-1,6-dihydro-7H-pyrrolo[2,3-c]pyridin-7-one] | 27.8 | 20.7 | 1.1 | 4.1 |
| CCOC(=O)c1cc2c(-c3cc(N=S(C)(C)=O)ccc3Oc3c(C)cc(F)cc3C)cn(C)c(=O)c2[nH]1 [Example 14, Ethyl 4-{5-{[dimethyl(oxo)-λ^6-sulfanylidene]amino}-2-(4-fluoro-2,6-dimethylphenoxy)phenyl}-6-methyl-7-oxo-6,7-dihydro-1H-pyrrolo[2,3-c]pyridine-2-carboxylate] | 139 | 72 | 4 | 27.9 |
| Cn1cc(-c2cc(N=S3(=O)CCCC3)ccc2Oc2ccc(F)cc2F)c2cc[nH]c2c1=O [Example 15, 4-{2-(2,4-difluorophenoxy)-5-[(1-oxidotetrahydro-1λ^6-thiophen-1-ylidene)amino]phenyl}-6-methyl-1,6-dihydro-7H-pyrrolo[2,3-c]pyridin-7-one] | 9.1 | 13.7 | 1.2 | 4.5 |
| Cc1cn(-c2ccc(N=S(C)(C)=O)cc2-c2cn(C)c(=O)c3[nH]ccc23)ccc1=O [Example 17, 4-{5-{[dimethyl(oxo)-λ^6-sulfanylidene]amino}-2-[3-methyl-4-oxopyridin-1(4H)-yl]phenyl}-6-methyl-1,6-dihydro-7H-pyrrolo[2,3-c]pyridin-7-one] |  |  | 4 | 330 |
| Cc1cc(F)cc(C)c1Oc1ccc(N=S(C)(C)=O)cc1-c1cn(C)c(=O)c2[nH]c(C(=O)NCC(F)(F)F)cc12 [Example 22, 4-{5-{[dimethyl(oxo)-λ^6-sulfanylidene]amino}-2-(4-fluoro-2,6-dimethylphenoxy)phenyl}-6-methyl-7-oxo-N-(2,2,2-trifluoroethyl)-6,7-dihydro-1H-pyrrolo[2,3-c]pyridine-2-carboxamide] |  |  | 0.88 | 188 |
